According to patent publication US20230416341A1, “IMPROVED THROMBIN INHIBITORS FOR TREATMENT OF THROMBOEMBOLIC CONDITIONS” (priority 2020, published 2023):

Assay: Blood loss after 3 mm tail transection (haemoglobin assay)
Details: mouse, in vivo, 10 mg/kg, 30 min
Description: “Blood loss” generally refers excessive bleeding or haemorrhage. Minor haemorrhage refers to clinically insignificant bleeding. Major haemorrhage refers to internal bleeding or when the individual loses sufficient amounts of blood to cause a haemodynamic instability. Blood loss may be measured clinically by measuring blood pressure, pulse rate, haemoglobin levels, urea levels in the blood, and/or by imaging. Indicators of major haemorrhage will be clear to a person skilled in the art. Blood loss may also be determined experimentally for example by measuring the total volume of blood collected from a mouse tail transection and may be quantified by measurement of haemoglobin (mg/dL) present in the total volume of blood lost during a specified observation period (for example 20 minutes). Total haemoglobin may be assessed via a commercially available Haemoglobin colorimetric assay kit (Cat #MAK115; Sigma-Aldrich).
Blood loss was assessed by carrying out a 3 mm tail transection (lop) in rodents, to assess blood loss following compound/drug administration. Tail lop was performed using a standard transection 3 mm from the tip of the tail (Schoenwaelder et al, 2011, Blood). The tail was immediately immersed in pre-warmed sterile saline (37° C.) and time to bleeding cessation and rebleeding events monitored for 30 minutes following transection. […]

blood loss (haemoglobin): over 2000 mg/dL
SMILES: CC1CNc2c(cccc2S(=O)(=O)N[C@@H](CCCNC(=N)N)C(=O)N2CC[C@@H](C)C[C@@H]2C(=O)O)C1 (stereo partly shown) [argatroban]
